US20100255994A1, “HERBICIDAL MIXTURE” (E.I. DU PONT DE NEMOURS AND COMPANY, priority 2007, published 2010)

Tested on: Digitaria nuda
Assay: Test A: postemergence greenhouse weed control, visual rating
Type: in vivo
Conditions: 7 DAT
Description: Plastic pots (10-cm square) were filled to the rim with a sandy loam soil having pH of 6.1, 1.4% organic matter and a cation exchange capacity (CEC) of 5.7 milliequivalents per 100 grams (meq/100 g). The soil was tamped firm to a uniform level of 2.5 cm below the rim of each pot. A measured amount of seeds of Digitaria nuda were scattered on the soil surface. Seeded pots were covered with approximately 50 mL of the same planting soil and tamped. The pots were then placed in a greenhouse and watered thoroughly 2-3 times daily as needed. A balanced fertilizer solution was injected into the watering system to provide 218 ppm of nitrogen. Artificial lighting was used to supplement natural light to produce a 14 h photoperiod. Greenhouse temperatures were targeted for 28.8° C. in the day and 19.8° C. at night.
When the D. nuda plants reached the 3-4-leaf growth stage (8-12 cm height), the pots were sorted into test units for herbicide application. Treatments were replicated three times. The herbicides were diluted in a measured amount of water and then mixed using a magnetic stir bar for 10 minutes before aliquots were taken to make individual treatment solutions. Diuron was in the form of the DuPont product KARMEX, which is a wettable granule formulation containing 80 weight % active ingredient. Hexazinone was in the form of the DuPont product VELPAR DF, which is a wettable granule formulation containing 75 weight % active ingredient. A mixture of hexazinone and diuron in 11:39 weight ratio was in the form of the DuPont product VELPAR-K (VELPAR-K4) 60 WG, which is a wettable granule formulation containing 13.2 weight % hexazinone and 46.8 weight % diuron active ingredients. A mixture of hexazinone and diuron in 1:8 weight ratio was in the form of the DuPont product VELPAR-K8 (marketed in Brazil as ADVANCE Herbicide), which is a wettable granule formulation containing 6.7 weight % hexazinone and 53.3 weight % diuron active ingredients. Topramezone was in the form of the AMVAC product IMPACT, which is a suspension concentrate formulation containing 29.7% active ingredient. These products were applied alone and in combinations. Application rates of diuron and hexazinone were […] and 210 g ai ha^−1, respectively. The application rates of the VELPAR-K4 mixture of hexazinone and diuron (132 g a.i. hexazinone+468 g a.i. diuron/kg of formulated product) and VELPAR-K8 mixture of hexazinone and diuron (67 g a.i. hexazinone+533 g a.i. diuron kg of formulated product) were 1200 and 1800 g total a.i. ha^−1, respectively. Application rates of topramezone were 6, 12, 18 and 24 g a.i./ha. (“a.i.” means active ingredient.) The pots were then sprayed through a T-Jet 8002E nozzle using a stationary belt sprayer calibrated to deliver 281 L/ha at 276 kPa. Treatments were replicated three times.
The plants were returned to the greenhouse, and then control was visually evaluated relative to the control plants at 7 days after treatment (DAT). A numerical percent rating system was used to describe the response observed from each treatment on a scale of 0 to 100%, in which 0% indicates no response and 100% indicates plant death or near death. The reported results are the mean averages of the three replicates.
Colby's Equation was used to determine the herbicidal effects expected from the mixtures. Colby's Equation (Colby, S. R. “Calculating Synergistic and Antagonistic Responses of Herbicide Combinations,” Weeds, 15(1), pp 20-22 (1967)) calculates the expected additive effect of herbicidal mixtures, and for two active ingredients, or a pair of active ingredients (e.g., diuron+hexazinone) combined with an additional active ingredient (e.g., topramezone), is of the form: […]

## CN(C)C(=O)Nc1ccc(Cl)c(Cl)c1 [Diuron, N′-(3,4-dichlorophenyl)-N,N-dimethylurea]
Diuron 1800 g a.i./ha
  % Control Observed: 20%

## CN(C)c1nc(=O)n(C2CCCCC2)c(=O)n1C [Hexazinone]
Hexazinone 210 g a.i./ha
  % Control Observed: 12%

## Cc1c(C(=O)c2cnn(C)c2O)ccc(S(C)(=O)=O)c1C1=NOCC1 [Topramezone]
Topramezone 6 g a.i./ha, 3-4-leaf stage, mean of 3 replicates
  % Control Observed: 27%
Topramezone 12 g a.i./ha
  % Control Observed: 28%
Topramezone 18 g a.i./ha
  % Control Observed: 33%
Topramezone 24 g a.i./ha
  % Control Observed: 40%
